According to the NIST ThermoML archive (doi:10.1016/j.tca.2011.12.010):
Values joined by “and” are separate entries in the source; they are usually repeats but may differ in a detail not shown here. Equal values may be shown once.

Experiment: molar heat capacity at constant pressure
Details: 101.33 kPa, Small sample (50 mg) DSC

O=[N+]([O-])[O-].O=[N+]([O-])[O-].O=[N+]([O-])[O-].O=[N+]([O-])[O-].[K+].[K+].[Mg+2] [bis-potassium magnesium nitrate]
Details | molar heat capacity at constant pressure
461 K, Crystal 1 | 606.9 J/K/mol
462 K, Crystal 1 | 680.8 J/K/mol
463 K, Crystal 1 | 806.8 J/K/mol
464 K, Crystal 1 | 1030.1 J/K/mol
465 K, Crystal 1 | 1503.6 J/K/mol
466 K, Crystal 1 | 2552.2 J/K/mol
467 K, Crystal 1 | 4003 J/K/mol
469 K, Liquid | 2955.4 J/K/mol
470 K, Liquid | 2419.9 J/K/mol
471 K, Liquid | 1683.9 J/K/mol
472 K, Liquid | 1106.4 J/K/mol
473 K, Liquid | 770 J/K/mol
474 K, Liquid | 542.5 J/K/mol
475 K, Liquid | 510 J/K/mol
476 K, Liquid | 480.6 J/K/mol
477 K, Liquid | 469 J/K/mol
478 K, Liquid | 455.6 J/K/mol
478.15 K, Liquid | 463.8 J/K/mol
479 K, Liquid | 462.4 J/K/mol
480 K, Liquid | 462.4 J/K/mol
481 K, Liquid | 462.4 J/K/mol
482 K, Liquid | 462.6 J/K/mol
483 K, Liquid | 462.8 J/K/mol
484 K, Liquid | 463 J/K/mol
485 K, Liquid | 459.2 J/K/mol and 463.2 J/K/mol
486 K, Liquid | 463.3 J/K/mol
487 K, Liquid | 463.4 J/K/mol
488 K, Liquid | 463.6 J/K/mol
489 K, Liquid | 463.8 J/K/mol
490 K, Liquid | 463.9 J/K/mol
491 K, Liquid | 464.1 J/K/mol
492 K, Liquid | 464.6 J/K/mol
493 K, Liquid | 464.6 J/K/mol
494 K, Liquid | 464.9 J/K/mol
495 K, Liquid | 465.2 J/K/mol
496 K, Liquid | 465.5 J/K/mol
497 K, Liquid | 465.6 J/K/mol
498 K, Liquid | 465.8 J/K/mol
499 K, Liquid | 466 J/K/mol
500 K, Liquid | 466.2 J/K/mol
501 K, Liquid | 466.4 J/K/mol
502 K, Liquid | 466.6 J/K/mol
503 K, Liquid | 466.1 J/K/mol
504 K, Liquid | 467 J/K/mol
505 K, Liquid | 467.2 J/K/mol
506 K, Liquid | 467.4 J/K/mol
507 K, Liquid | 467 J/K/mol
508 K, Liquid | 467.8 J/K/mol
509 K, Liquid | 466.6 J/K/mol
510 K, Liquid | 469 J/K/mol and 466.2 J/K/mol
511 K, Liquid | 466.2 J/K/mol
512 K, Liquid | 464.1 J/K/mol
513 K, Liquid | 465.5 J/K/mol
514 K, Liquid | 464.5 J/K/mol
515 K, Liquid | 471.8 J/K/mol
516 K, Liquid | 470.4 J/K/mol
517 K, Liquid | 466.9 J/K/mol
518 K, Liquid | 471.1 J/K/mol
519 K, Liquid | 476.4 J/K/mol
520 K, Liquid | 475.7 J/K/mol and 471.8 J/K/mol
521 K, Liquid | 475.7 J/K/mol
522 K, Liquid | 480.9 J/K/mol
523 K, Liquid | 478.1 J/K/mol
524 K, Liquid | 478.6 J/K/mol
525 K, Liquid | 479.1 J/K/mol
526 K, Liquid | 478.1 J/K/mol
527 K, Liquid | 478.7 J/K/mol
528 K, Liquid | 478.8 J/K/mol
529 K, Liquid | 485.8 J/K/mol
530 K, Liquid | 480.6 J/K/mol
531 K, Liquid | 474.6 J/K/mol
532 K, Liquid | 475.7 J/K/mol
533 K, Liquid | 476 J/K/mol
534 K, Liquid | 477.4 J/K/mol
535 K, Liquid | 483.4 J/K/mol and 478.8 J/K/mol
536 K, Liquid | 480.6 J/K/mol
537 K, Liquid | 481.3 J/K/mol
538 K, Liquid | 483.4 J/K/mol
539 K, Liquid | 484.4 J/K/mol
540 K, Liquid | 486.5 J/K/mol
541 K, Liquid | 486.9 J/K/mol
542 K, Liquid | 487.6 J/K/mol
543 K, Liquid | 489 J/K/mol
544 K, Liquid | 490.7 J/K/mol
545 K, Liquid | 491.8 J/K/mol
546 K, Liquid | 493.5 J/K/mol
547 K, Liquid | 494.9 J/K/mol
548 K, Liquid | 495.6 J/K/mol
549 K, Liquid | 496.7 J/K/mol
550 K, Liquid | 498.4 J/K/mol
551 K, Liquid | 499.5 J/K/mol
552 K, Liquid | 500.9 J/K/mol
553 K, Liquid | 502.3 J/K/mol
554 K, Liquid | 503 J/K/mol
555 K, Liquid | 504.4 J/K/mol
556 K, Liquid | 505.8 J/K/mol
557 K, Liquid | 506.5 J/K/mol
558 K, Liquid | 508.2 J/K/mol
559 K, Liquid | 508.9 J/K/mol
560 K, Liquid | 510.3 J/K/mol
561 K, Liquid | 511.4 J/K/mol
562 K, Liquid | 512.4 J/K/mol
563 K, Liquid | 513.1 J/K/mol
564 K, Liquid | 514.2 J/K/mol
565 K, Liquid | 515.2 J/K/mol
566 K, Liquid | 517 J/K/mol
567 K, Liquid | 518 J/K/mol
568 K, Liquid | 518.4 J/K/mol
569 K, Liquid | 518.4 J/K/mol
570 K, Liquid | 519.1 J/K/mol
571 K, Liquid | 519.4 J/K/mol
572 K, Liquid | 518.4 J/K/mol
573 K, Liquid | 519.1 J/K/mol
574 K, Liquid | 519.1 J/K/mol
575 K, Liquid | 521.4 J/K/mol and 519.4 J/K/mol
576 K, Liquid | 519.8 J/K/mol
577 K, Liquid | 518.7 J/K/mol
578 K, Liquid | 511.7 J/K/mol
579 K, Liquid | 512.8 J/K/mol
580 K, Liquid | 514.2 J/K/mol and 525.2 J/K/mol
581 K, Liquid | 515.9 J/K/mol
582 K, Liquid | 517.3 J/K/mol
583 K, Liquid | 518.7 J/K/mol
584 K, Liquid | 520.5 J/K/mol
585 K, Liquid | 521.9 J/K/mol and 529.9 J/K/mol
586 K, Liquid | 524 J/K/mol
587 K, Liquid | 525.4 J/K/mol
588 K, Liquid | 526.8 J/K/mol
589 K, Liquid | 528.2 J/K/mol
590 K, Liquid | 529.9 J/K/mol and 531.4 J/K/mol
591 K, Liquid | 525.4 J/K/mol
592 K, Liquid | 525.4 J/K/mol
593 K, Liquid | 526.1 J/K/mol
594 K, Liquid | 526.4 J/K/mol
595 K, Liquid | 525.4 J/K/mol and 534.2 J/K/mol
596 K, Liquid | 526.1 J/K/mol
597 K, Liquid | 526.1 J/K/mol
598 K, Liquid | 527.1 J/K/mol
599 K, Liquid | 525.7 J/K/mol
600 K, Liquid | 525 J/K/mol and 537.1 J/K/mol
601 K, Liquid | 526.4 J/K/mol
602 K, Liquid | 521.9 J/K/mol
603 K, Liquid | 521.9 J/K/mol
604 K, Liquid | 519.8 J/K/mol
605 K, Liquid | 522.6 J/K/mol and 539.5 J/K/mol
606 K, Liquid | 524.7 J/K/mol
607 K, Liquid | 524.7 J/K/mol
608 K, Liquid | 520.8 J/K/mol
609 K, Liquid | 521.9 J/K/mol
610 K, Liquid | 526.8 J/K/mol and 541 J/K/mol
611 K, Liquid | 532 J/K/mol
612 K, Liquid | 525 J/K/mol
613 K, Liquid | 529.2 J/K/mol
614 K, Liquid | 536.6 J/K/mol
615 K, Liquid | 532 J/K/mol and 545.6 J/K/mol
616 K, Liquid | 533.8 J/K/mol
617 K, Liquid | 541.5 J/K/mol
618 K, Liquid | 537.6 J/K/mol
619 K, Liquid | 543.2 J/K/mol
620 K, Liquid | 538.7 J/K/mol and 547.7 J/K/mol
621 K, Liquid | 542.2 J/K/mol
622 K, Liquid | 543.6 J/K/mol
623 K, Liquid | 544.3 J/K/mol
623.15 K, Liquid | 543.9 J/K/mol and 552.9 J/K/mol
